26 compounds from US8883782B2, “Spiro-tetracyclic ring compounds as beta-secretase modulators and methods of use” (Amgen Inc., priority 2010, dated 2014) can be followed below.

Read-outs that look alike come from different tables or passages of the source.

Assay [1] has as its target Beta Secretase enzyme (BACE) (Homo sapiens, UniProt P56817). The experiment in a line: In vitro enzymatic BACE FRET (fluorescence resonance energy transfer) assay. Conditions: average IC50, enzyme assay; read-out: BACE 1 FRET assay. Type of assay: biochemical. Summed up: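 Enzyme activity was measured at pH 4.2 (0.05 M acetate, 10% DMSO final, 100 uM genapol) by cleavage of a 50 nM quenched fluorogenic peptide. After one hour, Tris was added to neutralise the pH and fluorescence was recorded.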

Assay [2] deals with Aβ40 in conditioned medium of cells stably expressing Amyloid Precursor Protein (APP). The experiment in a line: In vitro BACE cell-based assay (Aβ40 in conditioned medium, sandwich ELISA). As to conditions: Homo sapiens, read-out: HEK cell assay. Summed up:
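The sandwich ELISA pairs pAb40 capture (3 h, 4 °C) with 6E10 detection (2 h, 4 °C) and a streptavidin-europium TRF read-out. Supernatants come from APP-expressing cells grown in 10% FBS DMEM.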
(In an ELISA, binding on a coated surface is turned into a signal by an enzyme label.)

Setting [3] is: HEK293, average IC50, HEK cells.

Chain of Beta Secretase enzyme (BACE) (P56817 46-501, species assumed): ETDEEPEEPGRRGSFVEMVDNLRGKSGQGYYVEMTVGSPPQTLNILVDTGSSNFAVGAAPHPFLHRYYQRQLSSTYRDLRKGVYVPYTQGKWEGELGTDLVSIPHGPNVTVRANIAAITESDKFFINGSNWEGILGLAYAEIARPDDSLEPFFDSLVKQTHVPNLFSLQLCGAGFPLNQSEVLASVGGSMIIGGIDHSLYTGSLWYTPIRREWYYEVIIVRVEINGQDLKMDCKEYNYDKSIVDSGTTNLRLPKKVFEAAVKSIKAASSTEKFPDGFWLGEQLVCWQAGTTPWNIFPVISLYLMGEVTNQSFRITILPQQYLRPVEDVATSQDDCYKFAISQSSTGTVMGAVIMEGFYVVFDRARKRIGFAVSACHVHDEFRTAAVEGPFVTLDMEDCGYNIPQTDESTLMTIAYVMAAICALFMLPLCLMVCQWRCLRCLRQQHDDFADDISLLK

For the compound `COc1cc2c(c(F)c1F)Oc1ccc(-c3cccnc3F)cc1[C@]21COC(N)=N1` [Example 1004, (4R)-3′,4′-difluoro-7′-(2-fluoro-3-pyridinyl)-2′-methoxyspiro[1,3-oxazole-4,9′-xanthen]-2-amine], the IC50 is 5560 nM in assay [1] and at least 10000 nM in assay [2] (HEK293, average IC50).
For `CC(C)(F)C#Cc1cnc2c(c1)[C@]1(COC(N)=N1)c1cc(-c3cncnc3)c(F)cc1O2` [Example 717, (S)-8-fluoro-3-(3-fluoro-3-methylbut-1-ynyl)-7-(pyrimidin-5-yl)-5′H-spiro[chromeno[2,3-b]pyridine-5,4′-oxazol]-2′-amine], the IC50 in assay [1] came to 3.8 nM; in assay [2] (setting [3]), 212 nM.
Consider `COc1cc(F)c2c(c1)[C@@]1(COC(N)=N1)c1cc(-c3cncnc3)c(F)cc1O2` [Example 555, (4R)-3′,5′-difluoro-7′-methoxy-2′-(5-pyrimidinyl)spiro[1,3-oxazole-4,9′-xanthen]-2-amine], for which the IC50 in assay [1] stood at 290 nM; in assay [2] (setting [3]) it was 1700 nM.
In the same order, the values of `N#Cc1ncccc1-c1ccc2c(c1)[C@@]1(COC(N)=N1)c1cc(C3=CCOCC3)ncc1O2` [Example 389, 3-((5S)-2′-amino-3-(3,6-dihydro-2H-pyran-4-yl)spiro[chromeno[2,3-c]pyridine-5,4′-[1,3]oxazol]-7-yl)-2-pyridinecarbonitrile] are 11.1 nM and 68.4 nM.
As for `NC1=N[C@@]2(CS1)c1cc(-c3cccnc3)ccc1Oc1c(F)cc(C3=CCCOC3)cc12` [Example 795, (4S)-2′-(5,6-dihydro-2H-pyran-3-yl)-4′-fluoro-7′-(3-pyridinyl)spiro[1,3-thiazole-4,9′-xanthen]-2-amine], the IC50 in assay [1] came out at 0.5 nM; in assay [2] (HEK293, average IC50), 10 nM.
In the same order, the values of `NC1=N[C@@]2(CO1)c1cc(-c3cnccc3F)ccc1Oc1c(F)cc(C3CCOCC3)cc12` [Example 1056, (4S)-4′-fluoro-7′-(4-fluoro-3-pyridinyl)-2′-(tetrahydro-2H-pyran-4-yl)spiro[1,3-oxazole-4,9′-xanthen]-2-amine] are 3 nM and 17 nM.
In the same order, the values of `CC1(COc2cc(F)c3c(c2)[C@]2(CSC(N)=N2)c2cc(-c4cccnc4F)ccc2O3)COC1` [Example 794, (4S)-4′-fluoro-7′-(2-fluoro-3-pyridinyl)-2′-((3-methyl-3-oxetanyl)methoxy)spiro[1,3-thiazole-4,9′-xanthen]-2-amine] are 0.2 nM and 6 nM.
Turning to `Cc1cc(-c2cc(F)c3c(c2)[C@]2(CSC(N)=N2)c2cc(-c4cccnc4F)ccc2O3)ccn1` [Example 1072, (4S)-4′-fluoro-7′-(2-fluoro-3-pyridinyl)-2′-(2-methyl-4-pyridinyl)spiro[1,3-thiazole-4,9′-xanthen]-2-amine], the IC50 in assay [1] is 3.3 nM; in assay [2] (HEK293, average IC50) it was 29 nM.
As to `CC(C)(C)C#Cc1cc2c(nc1F)Oc1ccc(-c3cccnc3F)cc1[C@@]21COC(N)=N1` [Example 685, (5S)-3-(3,3-dimethyl-1-butyn-1-yl)-2-fluoro-7-(2-fluoro-3-pyridinyl)spiro[chromeno[2,3-b]pyridine-5,4′-[1,3]oxazol]-2′-amine], the figures for the IC50 in assay [1] and in assay [2] (setting [3]) were 0.4 nM and 11 nM, respectively.
Consider `NC1=N[C@@]2(CO1)c1cc(C3=CCOCC3)cc(F)c1Oc1ccc(-c3cncnc3)c(F)c12` [Example 1041, (4S)-7′-(3,6-dihydro-2H-pyran-4-yl)-1′,5′-difluoro-2′-(5-pyrimidinyl)spiro[1,3-oxazole-4,9′-xanthen]-2-amine], for which the IC50 is 3590 nM in assay [1] and at least 10000 nM in assay [2] (HEK293, average IC50).
Regarding `CC(C)(C)COc1ccc2c(c1)C1(COC(N)=N1)c1cc(C3CCCOC3)ccc1O2` [Example 911, (4S)-2′-(2,2-dimethylpropoxy)-7′-((3R)-tetrahydro-2H-pyran-3-yl)spiro[1,3-oxazole-4,9′-xanthen]-2-amine, (4S)-2′-(2,2-dimethylpropoxy)-7′-((3S)-tetrahydro-2H-pyran-3-yl)spiro[1,3-oxazole-4,9′-xanthen]-2-amine], the IC50 in assay [1] is 19.2 nM; in assay [2] (setting [3]), 1290 nM.
On the same counts, the results for `COc1ncccc1-c1ccc2c(c1)[C@@]1(COC(N)=N1)c1cc(/C=C/C(C)(C)C)ncc1O2` [Example 408, (5S)-3-((1E)-3,3-dimethyl-1-buten-1-yl)-7-(2-methoxy-3-pyridinyl)spiro[chromeno[2,3-c]pyridine-5,4′-[1,3]oxazol]-2′-amine] are 20.1 nM and 311 nM.
In the same order, the values of `NC1=N[C@]2(CS1)c1cc(-c3cncnc3)c(F)cc1Oc1c(F)cc(C3=CCCOC3)cc12` [Example 874, (4R)-7′-(5,6-dihydro-2H-pyran-3-yl)-3′,5′-difluoro-2′-(5-pyrimidinyl)spiro[1,3-thiazole-4,9′-xanthen]-2-amine] are 32.5 nM and 506 nM.
Turning to `NC1=N[C@@]2(CS1)c1cc(-c3cccnc3F)ccc1Oc1c2cc(C2=CCCCO2)nc1F` [Example 1026, (5S)-3-(3,4-dihydro-2H-pyran-6-yl)-1-fluoro-7-(2-fluoro-3-pyridinyl)spiro[chromeno[2,3-c]pyridine-5,4′-[1,3]thiazol]-2′-amine], the IC50 in assay [1] was found to be 0.2 nM; in assay [2] (HEK293, average IC50), 11 nM.
Take `NC1=N[C@@]2(CS1)c1cc(-c3cccnc3F)ccc1Oc1cnc(N3CCC(F)(F)CC3)cc12` [Example 933, (5S)-3-(4,4-difluoro-1-piperidinyl)-7-(2-fluoro-3-pyridinyl)spiro[chromeno[2,3-c]pyridine-5,4′-[1,3]thiazol]-2′-amine]: the IC50 in assay [1] was found to be 0.5 nM; in assay [2] (setting [3]), 33 nM.
For `NC1=N[C@]2(CS1)c1cc(-c3cccnc3F)ccc1Oc1c2cc(C2=CCOCC2)nc1F` [Example 998, (5R)-3-(3,6-dihydro-2H-pyran-4-yl)-1-fluoro-7-(2-fluoro-3-pyridinyl)spiro[chromeno[2,3-c]pyridine-5,4′-[1,3]thiazol]-2′-amine], the IC50 in assay [1] is 13.5 nM; in assay [2] (HEK293, average IC50), 218 nM.
On the same counts, the results for `NC1=N[C@@]2(CO1)c1cc(-c3cccnc3F)ccc1Oc1c(F)cc(N3CCC4(CC3)COC4)cc12` [Example 189, (4S)-4′-fluoro-7′-(2-fluoro-3-pyridinyl)-2′-(2-oxa-7-azaspiro[3.5]non-7-yl)spiro[1,3-oxazole-4,9′-xanthen]-2-amine] are 0.8 nM and 7.8 nM.
Take `NC1=N[C@@]2(CS1)c1cc(-c3cccnc3F)ccc1Oc1c(F)cc(C3=CCOCC3)cc12` [Example 791, (4S)-2′-(3,6-dihydro-2H-pyran-4-yl)-4′-fluoro-7′-(2-fluoro-3-pyridinyl)spiro[1,3-thiazole-4,9′-xanthen]-2-amine]: the IC50 amounted to 0.1 nM in assay [1] and 10 nM in assay [2] (HEK293, average IC50).
On the same counts, the results for `Cn1ccc(-c2cnc3c(c2)[C@]2(COC(N)=N2)c2cc(C#CC(C)(C)C)ccc2O3)n1` [Example 180, (5S)-7-(3,3-dimethyl-1-butyn-1-yl)-3-(1-methyl-1H-pyrazol-3-yl)spiro[chromeno[2,3-b]pyridine-5,4′-[1,3]oxazol]-2′-amine] are 49.5 nM and 165 nM.
`COC(C)(C)COc1cnc2c(c1)[C@]1(COC(N)=N1)c1cc(-c3cc(Cl)ccc3F)ccc1O2` [Example 319, (5S)-7-(5-chloro-2-fluorophenyl)-3-(2-methoxy-2-methylpropoxy)spiro[chromeno[2,3-b]pyridine-5,4′-[1,3]oxazol]-2′-amine]: the IC50 in assay [1] was 0.7 nM; in assay [2] (HEK293, average IC50), 5.3 nM.
For `NC1=N[C@]2(CO1)c1ccncc1Oc1ccc(-c3c(F)ccnc3F)cc12` [Example 677, (5S)-7-(2,4-difluoro-3-pyridinyl)spiro[chromeno[2,3-c]pyridine-5,4′-[1,3]oxazol]-2′-amine], the IC50 in assay [1] was 51.6 nM; in assay [2] (setting [3]), 580 nM.
Consider `COc1cc(F)c2c(c1)[C@]1(COC(N)=N1)c1cc(-c3cncc(C#CC(C)(C)O)c3)ccc1O2` [Example 822, 4-(5-((4S)-2-amino-5′-fluoro-7′-methoxyspiro[1,3-oxazole-4,9′-xanthen]-2′-yl)-3-pyridinyl)-2-methyl-3-butyn-2-ol], for which the IC50 in assay [1] is 93.3 nM; in assay [2] (HEK293, average IC50), 3000 nM.
Regarding `CC1(C#Cc2cnc3c(c2)C2(CSC(N)=N2)c2cc(-c4cccnc4F)ccc2O3)COC1` (stereo not shown) [Example 98], the IC50 is 2 nM in assay [1] and 4.6 nM in assay [2] (setting [3]).
In the same order, the values of `CN(C)c1cc2c(cn1)Oc1ccc(-c3cccnc3)cc1C21CSC(N)=N1` [Example 889, (5R)-N~3~,N~3~-dimethyl-7-(3-pyridinyl)spiro[chromeno[2,3-c]pyridine-5,4′-[1,3]thiazole]-2′,3-diamine, (5S)-N~3~,N~3~-dimethyl-7-(3-pyridinyl)spiro[chromeno[2,3-c]pyridine-5,4′-[1,3]thiazole]-2′,3-diamine] are 19.9 nM and 540 nM.
On to `CNC(=O)c1ccc(F)c(-c2ccc3c(c2)[C@@]2(COC(N)=N2)c2cc(C4=CCOCC4)cnc2O3)c1` [Example 500, 3-((5S)-2′-amino-3-(3,6-dihydro-2H-pyran-4-yl)spiro[chromeno[2,3-b]pyridine-5,4′-[1,3]oxazol]-7-yl)-4-fluoro-N-methylbenzamide], for which the figures for the IC50 in assay [1] and in assay [2] (setting [3]) were 11.7 nM and 36.8 nM, respectively.
For the compound `Cc1ccc(-c2cc(F)c3c(c2)[C@]2(COC(N)=N2)c2cc(-c4cncc(F)c4)ccc2O3)nn1` [Example 292, (4S)-4′-fluoro-7′-(5-fluoro-3-pyridinyl)-2′-(6-methyl-3-pyridazinyl)spiro[1,3-oxazole-4,9′-xanthen]-2-amine], the IC50 was 2 nM in assay [1] and 31.6 nM in assay [2] (HEK293, average IC50).
